According to a compilation of properties of binary mixtures (doi:10.1021/je901058s):

Assay: xn = mol fraction of the nth substance listed
Conditions: 101 kPa

CCCCCCCCn1cc[n+](C)c1.O=[N+]([O-])[O-] + CCCCO
viscosity [mPa·s]
Conditions	283.15 K	288.15 K	293.15 K	298.15 K	303.15 K	308.15 K	313.15 K	318.15 K	323.15 K	328.15 K
x2 = 0.168	–	530	380	277	207	158	–	97.4	73.2	48.9
x2 = 0.261	440	311	229	172	132	103	78.5	63.4	51.6	35.5
x2 = 0.358	241	179	–	105	80.6	–	–	–	35.7	25.5
x2 = 0.458	126	98.8	74.2	–	–	39.3	32.6	27.3	–	–
x2 = 0.57	59.4	47.4	–	–	26.4	22.29	18.98	16.3	–	10.88
x2 = 0.676	29.9	24.7	–	17.43	–	–	11.15	9.75	–	6.84
x2 = 0.754	18.67	15.69	13.36	11.44	9.92	8.74	7.63	6.76	5.98	4.76
x2 = 0.848	10.45	9.03	–	–	5.92	5.15	4.56	4.03	–	2.93

CCCCCCCCn1cc[n+](C)c1.O=[N+]([O-])[O-] + CCCO
viscosity [mPa·s]
Conditions	283.15 K	288.15 K	293.15 K	298.15 K	303.15 K	308.15 K	313.15 K	318.15 K	323.15 K	328.15 K
x2 = 0.107	1091	730	510	365	267	201	153	120	95.4	–
x2 = 0.258	490	–	258	191	–	113	86.9	–	53.4	36.5
x2 = 0.364	218	164	127	99.7	–	63	51.1	42.1	35	25
x2 = 0.47	114	85.8	–	60	48.5	39.7	–	27.6	23.44	17.34
x2 = 0.556	65.4	–	–	34.4	28.6	–	20.38	17.44	15.08	–
x2 = 0.671	28.8	23.8	–	16.84	14.41	12.45	–	–	8.41	6.55
x2 = 0.756	16.16	13.66	11.67	10.07	8.77	7.63	6.75	5.93	5.21	4.2
x2 = 0.866	7.84	6.8	5.85	–	4.48	3.94	3.52	3.14	2.82	2.31
